Data published in paper PMC8523698, “Preclinical characterization of an intravenous coronavirus 3CL protease inhibitor for the potential treatment of COVID19” (Nature Communications, 2021).
pKi: −log10 of the molar value. Values joined by “and” are separate entries in the source; they are usually repeats but may differ in a detail not shown here. Equal entries are not always repeated. Where two headings read alike, the source gives them in different places.

Legend:
[1] = Human pharmacokinetic, Ceff and dose predictions; conditions: Fig 6C reference line, drawn from 0 to 72 h; head gives 500 nM
[2] = read-out: competitive Ki; vendor-verified compound file; ref Simcyp library; cited from earlier work
[3] = test system: HCoV-229E; test: Viral CPE assay in MRC-5 cells (CellTiter Glo); format: cell-based
[4] = test system: MRC-5 cells; test: Cytotoxicity in MRC-5 cells
[5] = test system: SARS-CoV-2 Washington strain 1 (USA_WA1/2020); format: cell-based; design: Percent Effect / Percent Effect (EC50 data): scale not given: direction of the effect not stated beside the values
[6] = test system: VeroE6-EGFP cells
[7] = target: MDR1/P-gp (Homo sapiens, UniProt P08183); test: Transporter inhibition using membrane vesicles; conditions: uptake of N-methyl quinidine by MDR1; control inhibitor concentration 4.000 uM; single replicates
Chain of MDR1/P-gp (P08183 whole entry, the tested form may be a part): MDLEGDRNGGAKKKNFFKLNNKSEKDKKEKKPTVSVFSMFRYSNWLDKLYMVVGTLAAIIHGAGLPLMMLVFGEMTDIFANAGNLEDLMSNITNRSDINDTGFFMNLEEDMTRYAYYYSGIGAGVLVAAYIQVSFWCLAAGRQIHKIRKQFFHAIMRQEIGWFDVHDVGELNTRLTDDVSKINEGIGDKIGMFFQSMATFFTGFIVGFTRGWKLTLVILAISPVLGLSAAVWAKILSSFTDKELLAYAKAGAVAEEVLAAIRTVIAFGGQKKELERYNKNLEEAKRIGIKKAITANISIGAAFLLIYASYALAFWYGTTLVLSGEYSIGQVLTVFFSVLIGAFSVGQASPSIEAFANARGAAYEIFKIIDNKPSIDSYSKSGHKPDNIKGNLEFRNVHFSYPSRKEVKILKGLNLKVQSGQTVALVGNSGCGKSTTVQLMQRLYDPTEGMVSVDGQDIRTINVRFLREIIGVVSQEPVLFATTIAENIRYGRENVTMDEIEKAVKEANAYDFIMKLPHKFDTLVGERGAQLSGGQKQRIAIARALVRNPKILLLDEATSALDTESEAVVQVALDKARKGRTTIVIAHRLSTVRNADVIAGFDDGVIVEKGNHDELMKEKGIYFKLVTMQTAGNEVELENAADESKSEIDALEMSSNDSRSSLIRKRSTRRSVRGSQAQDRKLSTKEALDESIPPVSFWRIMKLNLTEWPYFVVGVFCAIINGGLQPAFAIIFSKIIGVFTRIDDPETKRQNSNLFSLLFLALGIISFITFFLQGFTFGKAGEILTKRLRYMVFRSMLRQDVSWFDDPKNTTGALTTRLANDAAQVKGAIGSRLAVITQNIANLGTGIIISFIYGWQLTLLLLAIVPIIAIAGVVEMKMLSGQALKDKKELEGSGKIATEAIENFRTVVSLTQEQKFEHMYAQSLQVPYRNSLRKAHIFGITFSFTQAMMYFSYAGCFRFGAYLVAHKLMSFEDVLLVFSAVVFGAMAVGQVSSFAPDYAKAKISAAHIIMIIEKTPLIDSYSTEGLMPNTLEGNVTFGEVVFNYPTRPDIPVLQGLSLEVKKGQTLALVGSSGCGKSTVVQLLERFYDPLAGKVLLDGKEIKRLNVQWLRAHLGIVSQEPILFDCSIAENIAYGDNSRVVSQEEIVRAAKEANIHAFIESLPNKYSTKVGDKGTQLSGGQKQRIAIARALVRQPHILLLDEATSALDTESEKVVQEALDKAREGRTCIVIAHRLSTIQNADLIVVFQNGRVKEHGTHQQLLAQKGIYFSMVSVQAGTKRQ

[8] = Rat 24-h continuous intravenous infusion GLP toxicity study; format: in vivo, Sprague-Dawley rats; conditions: Fig 6C reference line 0 to 72 h

COc1cccc2[nH]c(C(=O)N[C@@H](CC(C)C)C(=O)N[C@@H](C[C@@H]3CCNC3=O)C(=O)CO)cc12 [Active]
Ceff SARS-COV2 (+P-gp inhib)= 500 nM [1]: 0.5

CC(O)C(C)n1ncn(-c2ccc(N3CCN(c4ccc(OCC5COC(Cn6cncn6)(c6ccc(Cl)cc6Cl)O5)cc4)CC3)cc2)c1=O (stereo not drawn) [OH-itraconazole]
pKi [2]: 8.64

COc1cccc2[nH]c(C(=O)N[C@@H](CC(C)C)C(=O)N[C@@H](C[C@@H]3CCNC3=O)C(=O)COP(=O)(O)O)cc12 [PF-07304814-00]
% Well Effect (EC50 data) ([3]; minus efflux inhibitor, 0.000949 uM): 1.31% and -4.82% and -7.06% and -4.29% and -0.06%
% Well Effect (EC50 data) ([3]; minus efflux inhibitor, 0.300053 uM): 80.07% and 80.97% and 97.35% and 80.44% and 65.29% and 92.74%
% Well Effect (EC50 data) ([3]; minus efflux inhibitor, 0.948767 uM): 81.04% and 93.59% and 91.22% and 85.19% and 91.91% and 88.72%
% Well Effect (EC50 data) ([3]; minus efflux inhibitor, 3 uM): 79.54% and 90.29% and 94.42% and 83.20% and 94.29% and 89.17%
% Well Effect (EC50 data) ([3]; plus 0.5 uM efflux inhibitor, 0.094893 uM): 70.28% and 62.16% and 55.71% and 62.75% and 53.71% and 73.85%
% Well Effect (EC50 data) ([3]; plus 0.5 uM efflux inhibitor, 0.300053 uM): 83.32% and 95.05% and 90.93% and 79.15% and 93.97% and 90.05%
% Well Effect (EC50 data) ([3]; plus 0.5 uM efflux inhibitor, 0.948767 uM): 82.39% and 96.75% and 87.38% and 79.38% and 95.45% and 97.43%
% Well Effect (EC50 data) ([3]; plus 0.5 uM efflux inhibitor, 3 uM): 80.02% and 92.89% and 93.90% and 81.60% and 91.07% and 95.86%
% Well Effect (CC50 data) ([4]; minus efflux inhibitor, 0.031642 uM): -10.74%
% Well Effect (CC50 data) ([4]; minus efflux inhibitor, 0.100053 uM): -6.45% and -4.39%
% Well Effect (CC50 data) ([4]; minus efflux inhibitor, 3.16311 uM): -8.68%
% Well Effect (CC50 data) ([4]; minus efflux inhibitor, 10.0018 uM): -6.54%
% Well Effect (CC50 data) ([4]; plus 0.5 uM efflux inhibitor, 0.031642 uM): -2.54% and -3.43%
% Well Effect (CC50 data) ([4]; plus 0.5 uM efflux inhibitor, 0.100053 uM): -2.51% and -2.24% and 4.92%
% Well Effect (CC50 data) ([4]; plus 0.5 uM efflux inhibitor, 1.00035 uM): -1.28% and -4.08%
% Well Effect (CC50 data) ([4]; plus 0.5 uM efflux inhibitor, 3.16311 uM): 5.87% and 5.13%
% Well Effect (CC50 data) ([4]; plus 0.5 uM efflux inhibitor, 31.6256 uM): -2.89% and -4.52%
% Well Effect (CC50 data) ([4]; plus 0.5 uM efflux inhibitor, 100 uM): 2.77% and -3.47% and 5.60% and -0.62%
Percent Effect ([5]; 0.00976562 uM): 0.053% and 0.085%
Percent Effect ([5]; 0.0195312 uM): 2.09% and 3.15%
Percent Effect ([5]; 0.0390625 uM): 0.085% and 9.35%
Percent Effect ([5]; 0.078125 uM): -0.27% and 0.54%
Percent Effect (EC50 data) ([5]; 0.195312 uM): -0.82%
Percent Effect ([5]; 0.3125 uM): 2.28% and 1.63%
Percent Effect ([5]; 0.390625 uM): 7.76% and 0.81% and 1.70% and 4.09% and 0.21% and 2.38% and 2.51% and 3.73%
Percent Effect (EC50 data) ([5]; 0.390625 uM): -0.72%
Percent Effect ([5]; 0.625 uM): -1.46% and -0.53%
Percent Effect (EC50 data) ([5]; 0.78125 uM): 8.72% and 9.53%
Percent Effect (EC50 data) ([5]; 3.125 uM): 96.73% and 101.34%
Percent Effect (EC50 data) ([5]; 5 uM): 98.13% and 94.20%
Percent Effect (EC50 data) ([5]; 6.25 uM): 105.65% and 94.43%
Percent Effect (EC50 data) ([5]; 25 uM): 105.56%
Percent Effect (EC50 data) ([5]; 31.6456 uM): 95.69% and 95.38% and 91.49% and 94.38%
Percent Effect (EC50 data) ([5]; 50 uM): 95.66%
Percent Effect (EC50 data) ([5]; 100 uM): 87.92% and 94.81% and 91.90% and 95.50%

COc1cccc2[nH]c(C(=O)N[C@@H](CC(C)C)C(=O)N[C@@H](C[C@@H]3CCNC3=O)C(=O)COP(=O)(O)O)cc12 [PF-073048141]
CC50 [6]: > 50 µM
CC50 ([6]; n=2): > 50 µM

C/C=C/C[C@@H](C)C(=O)[C@H]1C(=O)N[C@@H](C(C)C)C(=O)N(C)CC(=O)N(C)[C@@H](CC(C)C)C(=O)N[C@@H](C(C)C)C(=O)N(C)[C@@H](CC(C)C)C(=O)N[C@@H](C)C(=O)N[C@H](C)C(=O)N(C)[C@@H](CC(C)C)C(=O)N(C)[C@@H](CC(C)C)C(=O)N(C)[C@@H](C(C)C)C(=O)N1C [PSC833]
% PGP Uptake Activity [7]: 0.2057% (2×) and -0.01029% (2×) and -0.1954% (2×)

COc1cccc2[nH]c(C(=O)N[C@@H](CC(C)C)C(=O)N[C@@H](C[C@@H]3CCNC3=O)C(=O)COP(=O)(O)O)cc12 [Pf-4814]
Reg tox Day 1 Rat with Pf-4814 Actove (Cave, uM) ([8]; Day 1, dosed with Pf-4814, Cave of active): 10.7 µM

COc1cccc2[nH]c(C(=O)N[C@@H](CC(C)C)C(=O)N[C@@H](C[C@@H]3CCNC3=O)C(=O)CO)cc12 [Pf-5231]
Reg tox Day 1 Rat with Pf-5231 Actove (Cave,uM) ([8]; Day 1, dosed with Pf-5231, Cave of active): 10.7 µM
